Data as given in patent US9932339B2, “Helquats with heteroaromatic substituents, preparation thereof, and use thereof as G-quadruplex stabilizers” (USTAV ORGANICKE CHEMIE A BIOCHEMIE AV CR, V.V.I., priority 2014, dated 2018).

Key:
[1] = test system: c-myc protein; assay: Immunodetection of protein c-myc in HGC-27 cell lysates (Western blot); assay type: cell-based, human; conditions: 50 μmol · l^−1, 24 hour incubation, normalized to β-actin
Description: Determination of changes in c-myc protein expression (transcription factor) in cell lysates prepared from tumor cell line HGC-27 after treatment with test helquats (Tab. 7) was carried out by immunodetection after separation of proteins according to their size by gel electrophoresis (SDS-PAGE) and blotting.
To determine the influence helquats on expression of c-myc protein, the cells were cultured under standard conditions and in the exponential growth phase were seeded into flasks at a density of 25,000 cells/cm^2. The next day selected helquats were added at a concentration of 50 μmol·l^−1. After 24 hour incubation, the cell pellets were obtained and, after addition of RIPA buffer with protease inhibitors (PrIC) and phosphatases (PhIC) (for composition see Tab. 8) cell lysates were prepared. 150 μl of RIPA buffer was used for 10^7 cells. Protein concentrations in the lysates were measured by BCA method. Separation of proteins in the lysates was carried out on a 12% denaturing polyacrylamide gel. The separated proteins were transferred to PVDF membrane by Western blotting.
Incubation with primary mouse monoclonal antibody against the protein c-myc (dilution 1:1000 in “SignalBoost” reagent) was carried out overnight at 4° C., and then with the primary mouse anti-β-actin (1:5000 dilution in 5% milk in TBS-T buffer) at room temperature for 2 hours. Subsequently, the secondary horse monoclonal antibody conjugated to horseradish peroxidase (diluted 1:2000 in 5% milk in TBS-T buffer) binding to mouse IgG antibody was applied. C-myc proteins and β-actin bound to the membrane were visualized using detection kit (SuperSignal® West Femto Maximum Sensitivity Substrate, Cat. No. 34095, Thermo Fisher Scientific, Inc., USA) in the chemiluminescence detection system ImageQuant LAS 4000 Mini (Cat. No. 28-9558-13, GE Healthcare Life Sciences, USA). The amount of protein was quantified by densitometry in Quantity One software. The amount of c-myc in the samples was normalized to β-actin, and subsequently related to a control sample.

[2] = test system: G-quadruplex oligonucleotide Fmyc27T (NHE III1 promoter region of c-myc oncogene); assay: FRET melting of G-quadruplex oligonucleotide Fmyc27T with ligands; assay type: binding; conditions: for ΔTm (° C.) Fmyc27T/ds26 (° C.): helquat 1 μmol·l^−1, oligonucleotide 0.2 μmol·l^−1, 50-fold excess of double-stranded competitor ds26; for ΔTm (° C.) Fmyc27T: helquat 1 μmol·l^−1, oligonucleotide 0.2 μmol·l^−1, without competitor
Source text: (§1) To determine the degree of in vitro interactions of helquats with G-quadruplex(es), the oligonucleotides containing the guanine-rich sequences of human telomere (F21T) and NHE III1 promoter region of c-myc oncogene (Fmyc27T) were used. Both oligonucleotides capable of forming an intramolecular G-quadruplex were end-labeled with suitable fluorophores so as to form donor-acceptor FRET pair (5′-FAM and 3′-TAMRA). If the oligonucleotide is folded into the structure of the G-quadruplex, donor is in close proximity of acceptor and radiationless energy transfer to the acceptor occurs. With increasing temperature of the reaction mixture G-quadruplex structure gradually denatures and thus the donor and acceptor (FAM-TAMRA) drift apart. This leads to an increase in fluorescence of donor (FAM) and a decrease in fluorescence of acceptor (TAMRA).
(§2) The result of measurement is the curve of dependence of the intensity of fluorescence of the donor on the temperature. If the G-quadruplex is stabilized by ligand, melting temperature will increase. Melting temperature of G-quadruplex corresponds to the temperature when 50% of the original amount of the folded G-quadruplex is denatured. The measurement outcome is the difference in the melting temperatures (ΔTm) of the G-quadruplex alone and the G-quadruplex stabilized by ligand. In case of Fmyc27T experiments were performed in cacodylate buffer (10 mmol·l^−1, pH=7.2) with KCl (5 mmol·l^−1) and LiCl (95 mmol·l^−1) oligonucleotide and in case of F21T oligonucleotide in cacodylate buffer (10 mmol·l^−1, pH=7.2) with KCl (25 mmol·l^−1) and LiCl (75 mmol·l^−1).
(§3) Both oligonucleotides were denatured for 5 minutes at 95° C. and subsequently allowed to cool to room temperature (3 hours) in the switched-off thermoblock. The final oligonucleotide concentration in the reaction mixture was 0.2 μmol·l^−1. Test helquats were present at concentrations of 1 μmol·l^−1. The total reaction volume was 30 μl. The melting temperature of the oligonucleotides alone (without the presence of helquats) under these conditions was 58.1±0.2° C. for F21T and 64.7±0.4° C. for Fmyc27T. For determining the selectivity of binding of helquats to G-quadruplex in comparison with the double-stranded DNA, 50-fold excess of double-stranded DNA ([…] unlabeled competitor ds26 forming a hairpin) is added to the reaction mixture. After the addition to the reaction mixture ds26 competes with labeled oligonucleotide (Fmyc27T or F21T) for ligand binding. […] Melting temperature of oligonucleotides alone in the presence of the competitor is 59.4±0.5° C. for F21T and 66.3° C.±0.6° C. for Fmyc27T.
(§4) Fluorescence of FAM donor was measured using real-time PCR apparatus Opticon 2 (excitation 470-505 nm and emission 523-543 nm) in temperature increments of 0.5° C. in the range 25 to 95° C. Evaluation of the sigmoid curves of fluorescence intensity dependent on the temperature were performed in GraphPad Prism 5 (GraphPad Software, Inc., USA). Using nonlinear five parametric regression the inflection point on the curve was calculated that corresponds to the melting temperature (Tm) of the G-quadruplex under the given conditions. The values were obtained from at least three independent measurements.

[3] = test system: G-quadruplex oligonucleotide F21T (human telomere); assay: FRET melting of G-quadruplex oligonucleotide F21T with ligands; assay type: binding; conditions: for ΔTm (° C.) F21T/ds26: helquat 1 μmol·l^−1, oligonucleotide 0.2 μmol·l^−1, 50-fold excess of double-stranded competitor ds26; for ΔTm (° C.) F21T: helquat 1 μmol·l^−1, oligonucleotide 0.2 μmol·l^−1, without competitor
Source text: as §1, §2, §3, §4

[4] = test system: G-quadruplex in promoter region of the c-myc gene (NHE III1 segment); assay: Dual luciferase analysis with plasmid pGL4.10-myc (luc2) in HGC-27 cells; assay type: cell-based, human; conditions: Homo sapiens; for inhibition at 50 µM: HGC-27, text summary of tab. 5 (50 μmol·l^−1), read-out: inhibition of expression of firefly luciferase as compared to control; for activity at 50 µM: helquat 50 μmol · l^−1, HGC-27, firefly normalized to Renilla, 24 hours after transfection, read-out: luciferase expression relative to control (control = 100%)
Source text: A dual luciferase analysis was used to determine the degree of stabilization of G-quadruplex in a promoter region of the c-myc gene on cellular level. Stabilization of G-quadruplex is expressed as the ratio of expression of two luciferases (firefly and Renilla) from the co-transfected vectors pGL4.10-myc (luc2) and pRL-TK (Renilla) into a cell line HGC-27 expressing c-myc protein. Expression of the reporter gene (firefly luciferase) from pGL4.10-myc vector is controlled by the c-myc regulatory region of a length of 860 by (in the range from −306 to +554). The inserted sequence contains NHE III1 segment which forms G-quadruplex [Yang, D. et al. (2010) Future Med Chem., 2, 619], and is responsible for as much as 90% of the transcriptional activity of the c-myc gene.
Level of expression of firefly luciferase reporter gene corresponds to promoter activity of c-myc and thus to the degree of stabilization of the G-quadruplex. The signal is normalized to Renilla luciferase expression from pRL-TK vector under the control of a constitutive viral thymidine kinase (HSV-TK) promoter. The amount of Renilla luciferase expression serves as an internal control for normalization of firefly signal on transfection efficiency in the sample. Plasmids pGL4.10-myc (luc2) and pRL-TK were propagated in Escherichia coli (DH5α strain) and purified using the Qiagen Plasmid Mini and Midi kits. Cells were cultured under standard conditions and in exponential growth phase were seeded into a white 96-well microtiter plates. Transfection was carried out using a transfection reagent X-tremeGENE HP DNA in OptiMEM media for two hours. The ratio of reporter and control vector was 1:1 and the ratio of transfection reagent to the total amount of DNA was 1:1. Two hours after transfection helquats were added in a concentration of 50 μmol·l^−1. Quantity of firefly and Renilla luciferases in the samples was determined 24 hours after transfection. Dual luciferase analysis was performed using a commercially available kit (Promega, cat. No. E1960) according to manufacturer's instructions. Luminescence was measured using a luminometer EnSpire Alpha Plate Reader. The data obtained were normalized to the Renilla luciferase signal and then the values were related to control.

| Compound | c-myc protein expression relative to control (control = 100%) [1] [%] | ΔTm (° C.) Fmyc27T/ds26 (° C.) [2] [°C] | ΔTm (° C.) Fmyc27T [2] [°C] | ΔTm (° C.) F21T/ds26 [3] [°C] | ΔTm (° C.) F21T [3] [°C] | inhibition at 50 µM [4] [%] | activity at 50 µM [4] [%] |
| --- | --- | --- | --- | --- | --- | --- | --- |
| 2,4,15,17-tetra((E)-(2-(1-methyl-1H-indol-2-yl)vinyl)-6,7,8,11,12,13-hexahydrodipyrido[1,2-a:1′,2′-a′]benzo[2,1-c:3,4-c′]bisazepindiium trifluoromethanesulfonate [PRC-C10-10] | 71 |  |  |  |  |  |  |
| C(=C\c1cc(/C=C/c2ccsc2)[n+]2c(c1)-c1c(ccc3c1-c1cc(/C=C/c4ccsc4)cc(/C=C/c4ccsc4)[n+]1CCC3)CCC2)/c1ccsc1 (racemic) [PRC-C5-9, (rac)-2,4,13,15-tetrakis((E)-2-(thiophen-3-yl)vinyl)-6,7,8,11,12,13-hexahydro-dipyrido[1,2-a;1′,2′-a′]benzo[2,1-c:3,4-c′]bisazepindiium trifluoromethanesulfonate] | 34 |  |  |  |  |  |  |
| C(=C\c1cc2ccccc2[nH]1)/c1cc(/C=C/c2cc3ccccc3[nH]2)[n+]2c(c1)-c1c(ccc3c1-c1cccc[n+]1CC3)CC2.O=S(=O)([O-])C(F)(F)F.O=S(=O)([O-])C(F)(F)F [HTA-C10-10, 2,4-bis((E)-2-(1H-indol-2-yl)vinyl)-6,7,10,11-tetrahydrodipyrido[2,1-a:1′,2′-k][2,9]phenanthroline-5,12-diium trifluoromethanesulfonate] | 75 |  |  |  |  |  |  |
| COc1ccc(/C=C/c2cc[n+]3c(c2)-c2c(c(C)c(C)c4c2-c2cccc(/C=C/c5ccc(OC)nc5OC)[n+]2CC4)CC3)c(OC)n1.O=S(=O)([O-])C(F)(F)F.O=S(=O)([O-])C(F)(F)F [MJB-C8-27, 2,13-bis((E)-2-(2,6-dimethoxypyridin-3-yl)vinyl)-8,9-dimethyl-6,7,10,11-tetrahydrodipyrido[2,1-a:1′,2′-k][2,9]phenanthroline-5,12-diium trifluoromethanesulfonate] |  | 10.0 | 9.7 | 5.2 | 8.0 | > 10 | 88 |
| COc1ccc(/C=C/c2cc[n+]3c(c2)-c2c(ccc4c2-c2cc(/C=C/c5ccc(OC)nc5OC)cc[n+]2CC4)CC3)c(OC)n1 [PDA-C8-27, 2,15-bis((E)-2-(2,6-dimethoxypyridin-3-yl)vinyl)-6,7,10,11-tetrahydrodipyrido[2,1-a:1′,2′-k][2,9]phenanthroline-5,12-diium trifluoromethanesulfonate] |  | 9.6 | 11.8 | 7.0 | 9.3 | > 20 | 77 |
| Brc1ccc2[nH]cc(/C=C/c3cc[n+]4c(c3)-c3c(ccc5c3-c3cc(/C=C/c6c[nH]c7ccc(Br)cc67)cc[n+]3CC5)CC4)c2c1.O=S(=O)([O-])C(F)(F)F.O=S(=O)([O-])C(F)(F)F [PDA-C9-30, 2,15-bis((E)-2-(5-bromo-1H-indol-3-yl)vinyl)-6,7,10,11-tetrahydrodipyrido[2,1-a:1′,2′-k][2,9]phenanthroline-5,12-diium trifluoromethanesulfonate] |  | 16.0 | 14.6 | 13.1 | 12.3 |  |  |
| Cn1cc(/C=C/c2cc[n+]3c(c2)-c2c(ccc4c2-c2cc(/C=C/c5cn(C)c6ccccc56)cc[n+]2CC4)CC3)c2ccccc21 [PDA-C10-13, 2,15-bis((E)-2-(1-methyl-1H-indol-3-yl)vinyl)-6,7,10,11-tetrahydrodipyrido[2,1-a:1′,2′-k][2,9]phenanthroline-5,12-diium trifluoromethanesulfonate] |  | 13.6 | 13.8 | 9.1 | 9.7 |  |  |
| Cc1c(C)c2c(c3c1CC[n+]1ccc(/C=C/c4c(-c5ccccc5)[nH]c5ccccc45)cc1-3)-c1cc(/C=C/c3c(-c4ccccc4)[nH]c4ccccc34)cc[n+]1CC2 [PDB-C15-8, 8,9-dimethyl-2,15-bis((E)-2-(2-phenyl-1H-indol-3-yl)vinyl)-6,7,10,11-tetrahydrodipyrido[2,1-a:1′,2′-k][2,9]phenanthroline-5,12-diium trifluoromethanesulfonate] |  | 14.5 | 15.7 | 11.1 | 11.3 |  |  |
